Measured values published in patent publication US12276654B2, “Chemical probe-dependent evaluation of protein activity and uses thereof” (The University of Chicago, priority 2017, dated 2025).
“Also recorded” adds a separate entry of the source.

Biological target: T1, PAFAH2 (Homo sapiens, UniProt Q99487)
T1 construct: Full-length, human ESD (NM_001984) and PAFAH2 (NM_000437) in pCMV6 entry vectors with C-terminal Myc-DDK tag
Test: ADPL quantification of PAFAH2 activity in stable PAFAH2 expressing PC3 cells
Assay type: cell-based
Conditions: same dose-range (0-1 μM)
Experimental: Cells were seeded in the 12-well chamber slide, typically at 10,000-30,000 cells per well (Ibidi, #81201). To get an even distribution of the cells, the chamber slide was pre-wetted with cell culture medium, drained off, and the chamber was left at room temperature for 5-10 min after seeding. Cells at 80-90% confluency were pulse treated with either FP-Bio (2 μM) in DMEM and incubated at 37° C. for 40 min or Capthepsin probe (5 μM) in complete medium and incubated at 37° C. for 3 hr. Cells were washed with PBS, fixed with 4% paraformaldehyde in PBS at room temperature for 15 minutes, washed twice with PBS for 5 minutes each at room temperature with orbital shaking and then permeabilized in 0.5% Triton X-100 in PBS at room temperature for 15 minutes. Finally, cells were washed twice with 0.05% Tween-20 in PBS for 5 minutes each at room temperature with orbital shaking.
Prior to antibody incubation, the chamber was removed and the well boundaries delineated with the hydrophobic barrier pen (Vector laboratories, #H-4000). One-drop Duolink blocking buffer (Sigma, #DUO92004) was added and the slide was incubated at 37° C. for 30 minutes in a humidified chamber. […]

Structure (SMILES): CC(C)c1ccccc1OC(=O)NCCc1ccc2ccccc2c1 [JW480]
- effect on PAFAH2 activity (ADPL signal): no inhibition of target signal was observed; also recorded: no effect
